Consider 17 compounds from patent publication US20200062773A1, “4,4a,5,7-TETRAHYDRO-3H-FURO[3,4-b]PYRIDINYL COMPOUNDS” (Janssen Pharmaceutlca NV, priority 2016, published 2020).

Molecules are shown by their SMILES.

One experiment concerns the target T1, BACE2 (Homo sapiens, UniProt Q9Y5Z0).
T1 construct: recombinant BACE2 protein in a final concentration of 0.4 μg/ml
T1 sequence (Q9Y5Z0 63-518): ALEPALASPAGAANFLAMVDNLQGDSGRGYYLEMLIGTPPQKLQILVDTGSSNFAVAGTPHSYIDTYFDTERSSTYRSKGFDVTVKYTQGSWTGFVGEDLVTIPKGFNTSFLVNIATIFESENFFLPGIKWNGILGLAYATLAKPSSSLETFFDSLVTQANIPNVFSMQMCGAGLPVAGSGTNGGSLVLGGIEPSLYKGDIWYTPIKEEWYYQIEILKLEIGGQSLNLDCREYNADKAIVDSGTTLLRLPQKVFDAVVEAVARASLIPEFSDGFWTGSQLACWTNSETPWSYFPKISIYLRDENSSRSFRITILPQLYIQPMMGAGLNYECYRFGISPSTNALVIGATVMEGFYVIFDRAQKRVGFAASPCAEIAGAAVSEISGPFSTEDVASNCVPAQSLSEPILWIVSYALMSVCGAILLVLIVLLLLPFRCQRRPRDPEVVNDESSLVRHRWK
Description: BACE2 biochemical FRET based assay. The conditions noted are these: recombinant BACE2, 450 minutes at room temperature, pH 5.0; for IC50: read-out: Biochemical FRET based assay pIC50 (converted). From the text: BACE2 Biochemical FRET Based Assay
(§1) This assay is a Fluorescence Resonance Energy Transfer Assay (FRET) based assay. The substrate for this assay contains the ‘Swedish’ Lys-Met/Asn-Leu mutation of the amyloid precursor protein (APP) beta-site APP-cleaving enzyme cleavage site. This substrate also contains two fluorophores: (7-methoxycoumarin-4-yl) acetic acid (Mca) is a fluorescent donor with excitation wavelength at 320 nm and emission at 405 nm and 2,4-Dinitrophenyl (Dnp) is a proprietary quencher acceptor. […] Upon cleavage by the beta-site APP-cleaving enzyme, the fluorophore Mca is separated from the quenching group Dnp, restoring the full fluorescence yield of the donor. The increase in fluorescence is linearly related to the rate of proteolysis.
Briefly in a 384-well format recombinant BACE2 protein in a final concentration of 0.4 μg/ml is incubated for 450 minutes at room temperature with 10 μM substrate in incubation buffer (50 mM Citrate buffer pH 5.0, 0.05% PEG, no DMSO) in the absence or presence of compound. Next the amount of proteolysis is directly measured by fluorescence measurement at T=0 and T=450 (excitation at 320 nm and emission at 405 nm). Results are expressed in RFU (Relative Fluorescence Units), as difference between T450 and T0.
(§2) A best-fit curve is fitted by a minimum sum of squares method to the plot of % Controlmin versus compound concentration. From this an IC50 value (inhibitory concentration causing 50% inhibition of activity) can be obtained.

Experiment [1] concerns Abeta 1-42 produced and secreted into the medium of human neuroblastoma SKNBE2 cells. Description: Cellular αLisa assay in SKNBE2 cells. Format: cell-based. The following applies: human neuroblastoma SKNBE2 cells expressing hAPP695, 18 hours incubation; for IC50: Homo sapiens, SKNBE2, 18 h, read-out: Cellular αLisa assay in SKNBE2 cells Abeta 42 pIC50 (converted). The protocol:
Cellular αLisa Assay in SKNBE2 Cells
In two αLisa assays the levels of Abeta 1-42 produced and secreted into the medium of human neuroblastoma SKNBE2 cells are quantified. The assay is based on the human neuroblastoma SKNBE2 expressing the wild type Amyloid Precursor Protein (hAPP695). The compounds are diluted and added to these cells, incubated for 18 hours and then measurements of Abeta 1-42 are taken. Abeta 1-42 are measured by sandwich αLisa. αLisa is a sandwich assay using biotinylated antibody AbN/25 attached to streptavidin coated beads and antibody cAb42/26 conjugated acceptor beads for the detection of Abeta 1-42 respectively. In the presence of Abeta 1-42, the beads come into close proximity. The excitation of the donor beads provokes the release of singlet oxygen molecules that trigger a cascade of energy transfer in the acceptor beads, resulting in light emission. Light emission is measured after 1 hour incubation (excitation at […] and emission at 615 nm).
as §2

A further experiment deals with T2, BACE1 (Homo sapiens, UniProt P56817).
T2 construct: recombinant BACE1 protein in a final concentration of 1 μg/ml
Description: BACE1 biochemical FRET based assay. The following applies: Method 1: recombinant BACE1 1 μg/ml, 120 min at room temperature, pH 5.0; for IC50: read-out: Biochemical FRET based assay pIC50 (converted).
Source text: BACE1 Biochemical Fret Based Assay
as §1, with “this assay is an APP derived 13 amino acids peptide that contains the” for “this assay contains the”, “cleavage by BACE1, the fluorophore” for “cleavage by the beta-site APP-cleaving enzyme, the fluorophore”
Briefly in a 384-well format recombinant BACE1 protein in a final concentration of 1 μg/ml is incubated for 120 minutes at room temperature with 10 μm substrate in incubation buffer (40 mM Citrate buffer pH 5.0, 0.04% PEG, 4% DMSO) in the absence or presence of compound. Next the amount of proteolysis is directly measured by fluorescence measurement at T=0 and T=120 (excitation at 320 nm and emission at 405 nm). Results are expressed in RFU (Relative Fluorescence Units), as difference between T120 and T0.
as §2

T2 sequence (P56817 46-501): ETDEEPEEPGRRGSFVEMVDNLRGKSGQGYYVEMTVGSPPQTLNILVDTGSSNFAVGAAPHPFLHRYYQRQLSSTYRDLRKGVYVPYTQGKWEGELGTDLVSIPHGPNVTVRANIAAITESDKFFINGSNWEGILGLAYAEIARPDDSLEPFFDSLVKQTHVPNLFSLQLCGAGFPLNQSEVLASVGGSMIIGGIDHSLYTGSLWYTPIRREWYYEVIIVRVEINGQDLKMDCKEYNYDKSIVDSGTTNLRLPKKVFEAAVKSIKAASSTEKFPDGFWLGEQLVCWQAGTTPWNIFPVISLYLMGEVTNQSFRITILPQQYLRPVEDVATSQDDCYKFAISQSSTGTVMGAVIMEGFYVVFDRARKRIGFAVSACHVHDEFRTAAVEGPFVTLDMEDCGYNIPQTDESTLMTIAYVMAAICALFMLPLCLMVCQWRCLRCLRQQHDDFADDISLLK

With `C[C@@]1(C#N)C[C@H]2[C@H](C(F)(F)F)OC[C@@]2(c2cc(NC(=O)c3ccc(C#N)cn3)ccc2F)N=C1N` [3e], the “Biochemical FRET based assay pIC50” value on BACE2 is <5; at BACE1, 5.84. Besides, the “Cellular αLisa assay in SKNBE2 cells Abeta 42 pIC50” value (“Cellular αLisa assay” below) in experiment [1] was 5.34.

For `C[C@@]1(C#N)C[C@@H]2[C@@H](C(F)F)OC[C@]2(c2cc(NC(=O)c3ccc(C#N)cn3)ccc2F)N=C1N` [27a], the IC50 is 36.3 nM on BACE2, 6.31 nM in experiment [1] and 2.82 nM on BACE1.

For the compound `CC(F)(F)[C@H]1OC[C@]2(c3cc(NC(=O)c4cnc(-n5cncn5)cn4)ccc3F)N=C(N)[C@](C)(C#N)C[C@H]12` [16a], the IC50 on BACE2 was 363 nM; in experiment [1], 16.6 nM; at BACE1 it was 4.9 nM.

Consider `C[C@@]1(C#N)C[C@@H]2[C@@H](CF)OC[C@]2(c2cc(NC(=O)c3cnc(OCF)cn3)ccc2F)N=C1N` [22a], for which the figures for the IC50 (at BACE2; in experiment [1]; at BACE1) were 74.1 nM, 13.2 nM and 4.79 nM, respectively.

In the case of `C[C@]1(C#N)C[C@@H]2[C@@H](C(F)(F)F)OC[C@]2(c2cc(NC(=O)c3ccc(C#N)cn3)ccc2F)N=C1N` [3f], the “Biochemical FRET based assay pIC50” value at BACE2 stood at 6.88; at BACE1, 8.33. For the same compound, the “Cellular αLisa assay” value in experiment [1] was determined as 8.1.

On to `COc1cnc(C(=O)Nc2ccc(F)c([C@@]34CO[C@@H](C)[C@@H]3C[C@](C)(S(C)(=O)=O)C(N)=N4)c2)cn1` (single isomer, unassigned) [13c], for which the results for the “Biochemical FRET based assay pIC50” value at BACE2 and at BACE1 were 5.41 and 6.05, respectively. Besides, in experiment [1], the “Cellular αLisa assay” value worked out at 6.21.

With `COc1cnc(C(=O)Nc2ccc(F)c([C@]34CO[C@H](C)[C@H]3C[C@@](C)(S(C)(=O)=O)C(N)=N4)c2)cn1` (single isomer, unassigned) [13a], the “Biochemical FRET based assay pIC50” value is on record as 5.9 at BACE2 and 7 at BACE1. Also, the “Cellular αLisa assay” value in experiment [1] is given as 7.19.

For `COc1cnc(C(=O)Nc2ccc(F)c([C@]34CO[C@H](C)[C@H]3C[C@](C)(S(C)(=O)=O)C(N)=N4)c2)cn1` (single isomer, unassigned) [13d], the “Biochemical FRET based assay pIC50” value on BACE2 and on BACE1 was <5 each time. Moreover, the “Cellular αLisa assay” value in experiment [1] is <5.05.

With `CC(C)(F)[C@H]1OC[C@]2(c3cc(NC(=O)c4ccc(C#N)cn4)ccc3F)N=C(N)[C@@](C)(C#N)C[C@H]12` [21b], the values for the IC50 (on BACE2; in experiment [1]; on BACE1) were 708 nM, 19.5 nM and 10.5 nM, respectively.

As for `CC1(C#N)CC2C(C(F)(F)F)OCC2(c2cc(NC(=O)c3cnc(-n4cncn4)cn3)ccc2F)N=C1N` (single isomer, unassigned) [34b], the values for the IC50 on BACE2 and on BACE1 were > 10000 nM and 1020 nM, respectively. The “Cellular αLisa assay” value in experiment [1] is recorded as 5.31.

As for `C[C@H]1OC[C@]2(c3cc(NC(=O)c4ccc(F)cn4)ccc3F)N=C(N)[C@](C)(C#N)C[C@H]12` (single isomer, unassigned) [10b], the “Biochemical FRET based assay pIC50” value is on record as 8.28 on BACE2 and 8.25 at BACE1. Besides, the “Cellular αLisa assay” value in experiment [1] is 8.23.

For the compound `C[C@]1(C#N)C[C@H]2[C@H](C(F)(F)F)OC[C@@]2(c2cc(NC(=O)c3ccc(C#N)cn3)ccc2F)N=C1N` [3d], the “Biochemical FRET based assay pIC50” value on BACE2 was <5; at BACE1, 5.02. For the same compound, the “Cellular αLisa assay” value in experiment [1] was <5.05.

As to `CC1(C#N)CC2C(C(F)(F)F)OCC2(c2cc(NC(=O)c3cnc(-n4cncn4)cn3)ccc2F)N=C1N` (single isomer, unassigned) [34a], the IC50 is 263 nM on BACE2 and 6.31 nM at BACE1. Further, the “Cellular αLisa assay” value in experiment [1] turned out to be 7.57.

With `CC(F)(F)[C@H]1OC[C@]2(c3cc(NC(=O)c4ccc(C#N)cn4)ccc3F)N=C(N)[C@](C)(C#N)C[C@H]12` [17a], the IC50 on BACE2 is 21.4 nM; in experiment [1], 2.14 nM; at BACE1 it was 1.58 nM.

`C[C@@H]1OC[C@@]2(c3cc(NC(=O)c4ccc(F)cn4)ccc3F)N=C(N)[C@@](C)(C#N)C[C@@H]12` (single isomer, unassigned) [10c]: the entries for the “Biochemical FRET based assay pIC50” value on BACE2 and at BACE1 were <5 and 5.01, respectively. Moreover, the “Cellular αLisa assay” value in experiment [1] stood at 5.29.

Turning to `CC1OCC2(c3cc(NC(=O)c4cnc(OCF)cn4)cc(F)c3F)N=C(N)C(C)(C#N)CC12` (single isomer, unassigned) [31a], the IC50 was 2400 nM at BACE2 and 66.1 nM at BACE1. Further, the “Cellular αLisa assay” value in experiment [1] is given as 7.15.

Consider `CC1OCC2(c3cc(NC(=O)c4cnc(-n5cncn5)cn4)ccc3F)N=C(N)C(C)(C#N)CC12` (single isomer, unassigned) [15a], for which the values for the IC50 on BACE2 and at BACE1 were 158 nM and 7.41 nM, respectively. Besides, the “Cellular αLisa assay” value in experiment [1] came out at 8.19.
